Assay [1] relates to Alternaria-induced eosinophil degranulation. Put plainly: Effect of test agents on Alternaria-induced eosinophil degranulation (EDN release). The class given is cell-based, human. The procedure: (§1) To monitor eosinophil degranulation, 200 μL of freshly isolated eosinophils were resuspended in HBSS with 25 mM HEPES and 0.01% gelatin at 5×10^5 cells/mL and incubated with the a particular fungal extract. After incubation for 3 hours at 37° C. in a 5% CO2 atmosphere, cell-free supernatants from each well were collected and stored at −20° C. To quantitate eosinophil degranulation, the concentration of one of the eosinophil granule proteins in the sample supernatants, EDN, was measured by specific RIA, as described previously (Horie & Kita, 1994, J. Immunol., 152:5457). The RIA is a double-Ab competition assay in which radioiodinated EDN, rabbit anti-EDN Ab, and burro anti-rabbit IgG are used (Abu-Ghazaleh et al., 1989, J. Immunol., 142:2393). Sensitivity of the kit was 2 ng/mL. Total cellular EDN was measured in parallel supernatants from cells lysed with Nonidet P-40 detergent (Sigma Chemical Co.). All experiments were conducted in duplicate.
The mechanism of the eosinophil degranulation response to Alternaria antigens was examined. To test whether Alternaria proteases are involved in eosinophil activation, Alternaria extracts either were pretreated with a cocktail of protease inhibitors (Complete™, Roche Molecular Biochemicals, Indianapolis, Ind.) or were not pretreated (control). Eosinophils then were incubated with the pretreated or control Alternaria extracts for 4 hours, and EDN release was measured.
(§2) To examine the effect of cytochalasin B in the eosinophil response, eosinophils were preincubated with or without cytochalasin B (5 μg/mL) for 15 minutes at 37° C. After preincubation, eosinophils were exposed to either Alternaria culture extract (100 μg/mL) or IL-5 (10 ng/mL) for 3 hours at 37° C., and EDN release from eosinophils was measured.
(§3) Next, the effect of a Ca^2+ chelator, EGTA, on Alternaria- or IL-5-induced eosinophil degranulation was investigated.
(§4) Eosinophils were pre-treated with various concentrations of ionomycin (FIG. 8D) or thapsigargin (FIG. 8E) for 15 minutes, and then exposed to Alternaria culture extract (100 μg/mL) or IL-5 (10 ng/mL) for 3 hours at 37° C.

Assay [2] deals with IL-5-induced eosinophil degranulation. The class given is cell-based, human. The procedure: as §1, §2, §3, §4
The test system of a further assay is PBMC. Put plainly: Effect of fluticasone propionate on IL-5 production by PBMC (ELISA). The class given is cell-based, human. On the procedure: PBMC were isolated from 30 mL of blood drawn from patients with chronic sinusitis, bronchial asthma, or normal individuals by density centrifugation using Histopaque®. Cells were then suspended in RPMI 1640 medium supplemented with 10% fetal bovine serum at 2×10^6 cells/mL and incubated for 3 days at 37° C. in 96-well tissue culture plates with medium alone, 25 μg/mL Alternaria cellular extract, 25 μg/mL Dermatophagoides Pteronyssinus (Der P; Greer Laboratories; a mite allergen), or 5 μg/mL Concanavalin A. Since Concanavalin A is a very potent inducer, supernatants of PBMC were diluted 50-fold before they were analyzed for the presence of IL-5.
To examine the effects of glucocorticoids on the eosinophilic response, fluticasone propionate (10^−10 M to 10^−6 M, GlaxoSmithKline) was added to the culture. After incubation, cell-free supernatants were collected and analyzed for IL-5 concentrations using an ELISA assay (Endogen, Inc.). In the experiments with Concanavalin A, the amount of IL-5 determined by ELISA was multiplied by 50 to account for the dilution factor.

The next assay concerns mice. Put plainly: Airway eosinophilia in mice (BAL fluid cells, DiffQuick stain). The class given is in vivo. On the procedure: Mice were sensitized at day 14 with 20 μg/dose OVA or 100 μg/dose Alternaria extracts (cellular or culture) by intraperitoneal injection of the antigens followed by intranasal challenge with the appropriate antigen at 250 μg/dose on days 28, 30, and 32.
Eosinophils were detected in mice by collecting BAL fluids, isolating the cells using a cytospin preparation, and staining the cells with DiffQuick stain (DADE Behring, Inc., Newark, Del.).
Furthermore, at 250 μg/dose of Alternaria culture extract, about 10% of the mice died before day 8 due to massive respiratory failure.
To examine the role of IL-5 in airway eosinophilia induced by Alternaria culture extracts, mice were pre-treated with 25 μg/dose of an anti-IL-5 mAb (Pharmingen) or a control antibody (rat IgG) 24 hours before being intranasally challenged at days 0, 3, and 6 with 250 μg/dose OVA, or 250 μg/dose Alternaria culture extract. The number of eosinophils was analyzed by DiffQuick staining at day 8.

Setting [3] is: fluticasone 10^−10 M, asthma patient PBMC, 3 days.
[4] abbreviates: fluticasone 10^−10 M, medium alone, asthma patient PBMC, 3 days.
Where [5] appears, read: fluticasone 10^−10 M, multiplied by 50 for dilution.
Where [6] appears, read: fluticasone 10^−10 M, supernatant diluted 50-fold.
[7] abbreviates: pre-treatment 15 minutes, various concentrations, Alternaria culture extract 100 μg/mL, 3 hours.
The mark [8] stands for this setting: pre-treatment 15 minutes, various concentrations, IL-5 10 ng/mL, 3 hours.

Where two headings read alike, the source gives them in different places.

As to `NCCc1ccc(S(=O)(=O)F)cc1` [AEBSF], in assay [1] (Alternaria extracts pretreated with inhibitor, 4 hours, EDN release), the “inhibition of Alternaria-induced eosinophil degranulation” value amounted to 89%.

For `CCCCCCCCCCCCCCCCCCNC(=O)OCC(COC(=O)N(Cc1cccc[n+]1CC)C(C)=O)OC` (stereo not drawn) [CV6209], the IC50 in assay [1] (Homo sapiens, Eosinophil, read-out: IC50 for Alternaria-induced degranulation) was ~1 µM.

As for `O=C(O)CN(CCN(CC(=O)O)CC(=O)O)CC(=O)O` [EDTA], in assay [1] (various concentrations), the “effect on Alternaria-induced eosinophil degranulation” value is recorded as “completely inhibited”. Besides, the “effect on IL-5-induced eosinophil degranulation” value in assay [2] was “completely inhibited”.

As for `O=C(O)CN(CCOCCOCCN(CC(=O)O)CC(=O)O)CC(=O)O` [EGTA], the “effect on Alternaria-induced eosinophil degranulation” value was “almost completely inhibited” in assay [1] (1 mM, pretreatment 15 minutes) and “almost completely inhibited” in assay [1] (10 mM, pretreatment 15 minutes). For the same molecule, the “effect on IL-5-induced degranulation” value in assay [2] (1 mM, pretreatment 15 minutes) is listed as “only partially inhibited”; in assay [2] (10 mM, pretreatment 15 minutes), “almost completely inhibited”.

Regarding `C=CC[C@@H]1/C=C(\C)C[C@H](C)C[C@H](OC)[C@H]2O[C@@](O)(C(=O)C(=O)N3CCCC[C@H]3C(=O)O[C@H](/C(C)=C/[C@@H]3CC[C@@H](O)[C@H](OC)C3)[C@H](C)[C@@H](O)CC1=O)[C@H](C)C[C@@H]2OC` [FK-506], the “effect on IL-5-induced eosinophil degranulation” value in assay [2] (various concentrations) is on record as “no effect”.

With `CN(C)CCCn1cc(C2=C(c3c[nH]c4ccccc34)C(=O)NC2=O)c2ccccc21` [GF109203X], in assay [2] (various concentrations), the “effect on IL-5-induced eosinophil degranulation” value is listed as “partially inhibited”.

`O=c1c(-c2ccc(O)cc2)coc2cc(O)cc(O)c12` [Genistein]: the “effect on IL-5-induced eosinophil degranulation” value in assay [2] (various concentrations) is on record as “completely inhibited”.

Consider `Cn1c2ccccc2c2c3c(c4c5ccccc5n(CCC#N)c4c21)CNC3=O` [Go 6976], for which the “effect on IL-5-induced eosinophil degranulation” value in assay [2] (various concentrations) is listed as “completely inhibited”.

Regarding `COc1cccc(-c2cc(=O)c3ccccc3o2)c1N` [PD98059], the “effect on IL-5-induced eosinophil degranulation” value in assay [2] (various concentrations) is “partially inhibited”.

Take `CC(=O)c1c(O)c(C)c(O)c(Cc2c(O)c3c(c(C(=O)/C=C/c4ccccc4)c2O)OC(C)(C)C=C3)c1O` [Rottelerin]: in assay [2] (various concentrations), the “effect on IL-5-induced eosinophil degranulation” value is “completely inhibited”.

As to `C[S+]([O-])c1ccc(-c2nc(-c3ccncc3)c(-c3ccc(F)cc3)[nH]2)cc1` (stereo not drawn) [SB203580], the “effect on IL-5-induced eosinophil degranulation” value in assay [2] (various concentrations) is “completely inhibited”.

For `CCCC[C@@H](C=O)NC(=O)[C@H](CC(C)C)NC(=O)OCc1ccccc1` [calpeptin, Calpeptin], the “effect on IL-5-induced eosinophil degranulation” value in assay [2] (various concentrations) was “partially inhibited”.

In the case of `C=C1[C@@H](C)[C@H]2[C@H](Cc3ccccc3)NC(=O)[C@]23OC(=O)/C=C/[C@H](O)CCC[C@@H](C)C/C=C/[C@H]3[C@@H]1O` [cytochalasin B], in assay [1] (5 μg/mL preincubation 15 minutes, Alternaria culture extract 100 μg/mL, 3 hours), the “effect on Alternaria-induced eosinophil degranulation” value is “not affected”. The “effect on IL-5-induced degranulation” value in assay [2] (5 μg/mL preincubation 15 minutes, IL-5 10 ng/mL, 3 hours) is listed as “inhibited”.

For the molecule `CCC(=O)O[C@]1(C(=O)SCF)[C@H](C)C[C@H]2[C@@H]3C[C@H](F)C4=CC(=O)C=C[C@]4(C)[C@@]3(F)[C@@H](O)C[C@@]21C` [fluticasone propionate], the “IL-5 production in the presence of Concanavalin A” value in the assay with PBMC is “inhibited”. The “IL-5 production in Alternaria-induced PBMC” value in the assay on PBMC (10^−10 M, lowest concentration) is recorded as “significantly inhibited”. In the assay with PBMC (10—O M as printed), the “IL-5 production in the presence of Der P” value was “inhibited”. Further, in the assay on PBMC (fluticasone 10^−9 M, asthma patient PBMC, 3 days), the “IL-5, Cellular Alternaria Extract (25 μg/mL), 1” value stood at 0.4. Also, in the assay with PBMC (setting [3]), the “IL-5, Cellular Alternaria Extract (25 μg/mL), 1” value is recorded as 1.4; the “IL-5, Cellular Alternaria Extract (25 μg/mL), 2” value is on record as 3.9; the “IL-5, Cellular Alternaria Extract (25 μg/mL), mean” value is given as 2.6; the “IL-5, Der P (25 μg/mL), 2” value came out at 0.9. Besides, the “IL-5, Der P (25 μg/mL), mean” value in the assay with PBMC (setting [3]) is reported as 0.9. Moreover, the “IL-5, Con A (5 μg/mL), mean” value with PBMC (fluticasone 10^−10 M, mean of values multiplied by 50) is 101. Moreover, in the assay with PBMC (setting [4]), the “IL-5, Medium, 1” value is 1.3; the “IL-5, Medium, 2” value turned out to be 0.3; the “IL-5, Medium, mean” value was found to be 0.8. In addition, in the assay on PBMC (setting [5]), the “IL-5, Con A (5 μg/mL), 1*50” value is 87 and the “IL-5, Con A (5 μg/mL), 2*50” value stood at 115. Besides, in the assay with PBMC (setting [6]), the “IL-5, Con A (5 μg/mL), 1” value was 1.7 and the “IL-5, Con A (5 μg/mL), 2” value is given as 2.3.

Take `C[C@H](CCC(=O)O)C[C@H](C)C[C@H](C)C(=O)/C=C(\O)[C@H](C)C[C@H](C)C/C=C/[C@@H](C)[C@@H](O)[C@@H](C)[C@@H](O)C[C@@H]1CC[C@@](C)([C@H]2CC[C@@](C)([C@@H](C)O)O2)O1` [ionomycin]: the “effect on Alternaria-induced eosinophil degranulation” value in assay [1] (setting [7]) is recorded as “synergistically increased”. Moreover, the “effect on IL-5-induced eosinophil degranulation” value in assay [2] (setting [8]) is “significantly inhibited”.

For `C/C=C(/C)C(=O)O[C@H]1C(C)=C2[C@H]([C@@H]1OC(=O)CCCCCCC)[C@@](C)(OC(C)=O)C[C@H](OC(=O)CCC)[C@@]1(O)[C@H]2OC(=O)[C@@]1(C)O` [thapsigargin], the “effect on Alternaria-induced eosinophil degranulation” value in assay [1] (setting [7]) is “synergistically increased”. Moreover, the “effect on IL-5-induced eosinophil degranulation” value in assay [2] (setting [8]) is recorded as “significantly inhibited”.

Herbmycin: the “effect on IL-5-induced eosinophil degranulation” value in assay [2] (various concentrations) is listed as “completely inhibited”.

B1: OVA: OVA antigen used for sensitization and challenge of mice (protein, UniProt P01012 2-386, looked up)
Ovalbumin: GSIGAASMEFCFDVFKELKVHHANENIFYCPIAIMSALAMVYLGAKDSTRTQINKVVRFDKLPGFGDSIEAQCGTSVNVHSSLRDILNQITKPNDVYSFSLASRLYAEERYPILPEYLQCVKELYRGGLEPINFQTAADQARELINSWVESQTNGIIRNVLQPSSVDSQTAMVLVNAIVFKGLWEKAFKDEDTQAMPFRVTEQESKPVQMMYQIGLFRVASMASEKMKILELPFASGTMSMLVLLPDEVSGLEQLESIINFEKLTEWTSSNVMEERKIKVYLPRMKMEEKYNLTSVLMAMGITDVFSSSANLSGISSAESLKISQAVHAAHAEINEAGREVVGSAEAGVDAASVSEEFRADHPFLFCIKHIATNAVLFFGRCVSP
On to B1, for which the “airway eosinophilia in non-sensitized (naïve) mice” value in the assay with mice (intranasal challenge only) is recorded as “not”. In the assay on mice (intraperitoneal sensitization day 14, intranasal challenge 250 μg/dose days 28, 30, 32), the “airway eosinophilia in sensitized and challenged mice” value is given as “developed airway eosinophilia by day 34”.
